Measured values reported in ChEMBL document CHEMBL2429746, “Cell-based medicinal chemistry optimization of high throughput screening hits for orally active antimalarials. Part 2: hits from SoftFocus kinase and other libraries” (J Med Chem, 2013).

How the values were obtained:
[1] = tested on: Plasmodium falciparum; assay: Antimalarial activity against Plasmodium falciparum infected in NOD SCID mouse after 4 days by Peters test; format: functional; settings: 96 h
[2] = tested on: Plasmodium falciparum; assay: Antimalarial activity against blood stage of Plasmodium falciparum Dd2 assessed as parasite viability after 72 hrs by SYBR green dye-based assay; format: functional, organism-based; settings: Dd2, 72 h
[3] = tested on: Plasmodium falciparum; assay: Antimalarial activity against blood stage of Plasmodium falciparum 3D7 assessed as parasite viability after 72 hrs by SYBR green dye-based assay; format: functional, organism-based; settings: 3D7, 72 h
[4] = Half life in Sprague-Dawley rat at 5 mg/kg, po; format: ADME, organism-based; parameters: dose 5 mg/kg, route oral; settings: in vivo
[5] = tested on: Plasmodium falciparum; assay: Antimalarial activity against Plasmodium falciparum infected in po dosed SCID mouse assessed as reduction in parasitaemia by Peters test; format: functional

**Q.** With `O=C(O)CCc1cccc2c1B(O)OC2` as the molecule, how does the ED90 [1] read?
**A.** 0.6 mg/kg

**Q.** For `NC1=Nc2ccc(Cl)cc2C1(O)c1ccccc1` (stereo not given), which IC50 [2] is on record?
**A.** 0.507 µM

**Q.** What about the IC50 [3] of the same molecule?
**A.** 0.216 µM

**Q.** Which results are given for `COc1ccc(-c2cc(-c3ccc(S(C)(=O)=O)cc3)cnc2N)cn1`?
**A.** half-life [4]: 8.7 h; ED90 [5]: 3.6 mg/kg
